What follows are compounds tested against PDE10 (UniProt Q9Y233) (assay: PDE10 enzyme inhibition, IMAP TR-FRET assay (MPDE10A7 Enzyme Activity and Inhibition)). Settings: IC50 class against PDE10; read-out: IC50.
Type: biochemical
How it was run: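 PDE10A enzyme or tissue homogenate preincubated with compounds 30 min at room temperature, then fluorescein-labelled cAMP or cGMP added for 60 min. IMAP binding reagent stop, TR-FRET read. Values are mean IC50s, grouped into five potency classes.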

IC50 | SMILES
250 to 1000 nM | O=S1(=O)CCN(c2nccnc2Oc2ccc(Nc3nc4ccccc4s3)cc2)CC1 [Example 75, N-(4-((3-(1,1-dioxido-4-thio-morpholinyl)-2-pyrazinyl)oxy)-phenyl)-1,3-benzothiazol-2-amine]
25 to 100 nM | N#CC1CN(c2nccnc2Oc2ccc(Nc3nc4ccccc4s3)cc2)C1 [Example 93, 1-(3-(4-(benzo[d]thiazol-2-yl-amino)phenoxy)pyrazin-2-yl)-azetidine-3-carbonitrile]
25 to 100 nM | c1ccc2sc(Nc3ccc(Oc4nccnc4N4CCCC4)cc3)nc2c1 [Example 68, N-(4-(3-(pyrrolidin-1-yl)pyrazin-2-yloxy)phenyl)benzo[d]thiazol-2-amine]
1000 to 5000 nM | Fc1cccc2nc(Nc3ccc(Oc4cnccn4)cc3)sc12 [Example 217, 7-fluoro-N-(4-(pyrazin-2-yloxy)phenyl)benzo[d]thiazol-2-amine]
25 to 100 nM | O=C(c1ccc(Oc2nccnc2C2=CCOCC2)cc1)c1nc2ncccc2[nH]1 [Example 131, (4-(3-(3,6-dihydro-2H-pyran-4-yl)pyrazin-2-yloxy)phenyl)(1H-imidazo[4,5-b]pyridin-2-yl)methanone]

Same assay, conditions: PDE10 enzyme inhibition; average IC50 data for each compound; read-out: Average IC50

IC50 | SMILES
406 nM | O=C(c1ccc(Oc2nccnc2Cl)cc1)c1nc2cccc(F)c2[nH]1

— patent US20120277209A1, “PYRAZINE COMPOUNDS AS PHOSPHODIESTERASE 10 INHIBITORS” (Amgen Inc., priority 2009, published 2012)
